This is an account of results in the NIST ThermoML archive (doi:10.1021/je049691v).

Structures are written as SMILES. Numbers after ± are expanded uncertainties.

For the series the following is noted: 101.33 kPa, Liquid, Vibrating tube method.

Consider `NCCO` [2-aminoethan-1-ol], for which the mass density (297.15 K) is recorded as 1012.94 ± 0.13 kg/m3. For the molecule `CO` [methanol], for the setting “298.15 K”, the mass density was determined as 786.58 ± 0.13 kg/m3.
